In ChEMBL document CHEMBL1201862, “PubChem BioAssay data set” (2004):
Active and inactive are the calls of the source.

What was measured:
[1] = target: T1, Carboxy-terminal domain RNA polymerase II polypeptide A small phosphatase 1 (Homo sapiens, UniProt Q9GZU7); experiment: inhibitors of CTDSP1, concentration-response testing, biochemical assay, absorbance-based, actives from ultra-high-throughput screening (AID 540297); format: functional
T1 sequence (Q9GZU7 whole entry): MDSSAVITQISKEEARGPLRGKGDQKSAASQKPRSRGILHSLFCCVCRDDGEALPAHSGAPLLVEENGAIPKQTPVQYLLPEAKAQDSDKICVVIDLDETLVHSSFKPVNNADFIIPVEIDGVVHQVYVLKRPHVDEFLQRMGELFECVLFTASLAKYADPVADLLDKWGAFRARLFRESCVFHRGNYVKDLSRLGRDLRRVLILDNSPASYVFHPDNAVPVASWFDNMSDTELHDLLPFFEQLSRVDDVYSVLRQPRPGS

[2] = NIH-3T3 fibroblast cytotoxicity, dose response, cytotoxicity control, cell-based, fluorescence, Alamar Blue, secondary assay (AID 2327); format: functional;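 further: NIH-3T3 mouse fibroblasts cultured with fluconazole at 8 µg/mL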
[3] = inhibitors of intracellular T. cruzi replication, confirmation, NIH3T3 host cells, beta-gal luminescence (AID 2044); format: functional, cell-based;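 further: intracellular parasites grown in NIH/3T3 mouse fibroblasts as host cells; luminescent beta-galactosidase reporter signal from transgenic T. cruzi replicating inside host cells; inhibitors lower the luminescence signal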
[4] = target: T2, Heat shock factor protein 1 (Mus musculus, UniProt P38532); experiment: inhibition of MG132-induced HSE-luciferase signal, confirmation, cell-based, NIH3T3, luminescence, dose retest (AID 2382); format: functional;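 further: NIH3T3 fibroblasts with HSF1-driven luciferase reporter stressed by proteasome inhibitor MG132; luminescence from HSF1-driven luciferase expression after 8 hours of MG132 stress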
T2 sequence (P38532 whole entry): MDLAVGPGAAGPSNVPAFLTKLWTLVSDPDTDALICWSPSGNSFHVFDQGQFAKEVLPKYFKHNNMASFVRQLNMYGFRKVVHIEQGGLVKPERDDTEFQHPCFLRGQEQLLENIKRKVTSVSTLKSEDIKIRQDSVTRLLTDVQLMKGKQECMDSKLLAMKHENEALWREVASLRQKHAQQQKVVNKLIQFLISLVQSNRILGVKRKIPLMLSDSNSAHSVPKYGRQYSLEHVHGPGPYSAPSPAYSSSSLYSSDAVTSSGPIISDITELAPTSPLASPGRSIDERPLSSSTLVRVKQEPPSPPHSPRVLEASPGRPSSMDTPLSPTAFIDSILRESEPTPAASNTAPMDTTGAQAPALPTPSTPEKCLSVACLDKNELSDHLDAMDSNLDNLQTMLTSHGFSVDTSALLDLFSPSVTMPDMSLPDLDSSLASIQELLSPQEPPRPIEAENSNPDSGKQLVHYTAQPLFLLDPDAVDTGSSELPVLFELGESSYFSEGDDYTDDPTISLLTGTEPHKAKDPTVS

[5] = target: T3, Protein RecA (Mycobacterium tuberculosis, UniProt P9WHJ3); experiment: Fluorescence Cell-Free Homogeneous Dose Retest to Identify Inhibitors of RecA-Intein Splicing Activity. [Related pubchem assays (depositor defined):AID2097, AID2223, AID489010, AID492950]; format: functional
T3 sequence (P9WHJ3 whole entry): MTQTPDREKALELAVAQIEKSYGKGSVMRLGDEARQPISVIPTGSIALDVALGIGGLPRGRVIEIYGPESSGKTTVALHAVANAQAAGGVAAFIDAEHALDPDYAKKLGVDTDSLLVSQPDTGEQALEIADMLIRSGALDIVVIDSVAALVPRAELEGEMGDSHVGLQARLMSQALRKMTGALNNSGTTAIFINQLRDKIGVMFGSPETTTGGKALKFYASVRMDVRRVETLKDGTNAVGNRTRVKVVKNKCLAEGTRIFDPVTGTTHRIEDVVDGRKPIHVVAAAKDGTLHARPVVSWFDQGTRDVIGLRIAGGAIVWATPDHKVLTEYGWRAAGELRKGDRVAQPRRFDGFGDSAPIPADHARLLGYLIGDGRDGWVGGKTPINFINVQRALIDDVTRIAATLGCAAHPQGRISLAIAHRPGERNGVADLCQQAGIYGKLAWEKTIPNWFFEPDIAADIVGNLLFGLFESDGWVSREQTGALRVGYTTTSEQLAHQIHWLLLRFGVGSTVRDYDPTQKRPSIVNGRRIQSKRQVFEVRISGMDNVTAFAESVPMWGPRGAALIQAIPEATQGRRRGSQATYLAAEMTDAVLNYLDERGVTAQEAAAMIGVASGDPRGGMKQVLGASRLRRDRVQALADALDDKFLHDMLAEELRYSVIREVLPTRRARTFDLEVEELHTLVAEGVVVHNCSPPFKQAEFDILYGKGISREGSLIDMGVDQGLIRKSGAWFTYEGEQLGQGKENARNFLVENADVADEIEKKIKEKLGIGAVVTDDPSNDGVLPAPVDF

[6] = C. albicans growth with fluconazole, confirmation, fluorescence, retest (AID 2467); format: functional, cell-based
[7] = cytotoxicity toward NIH3T3 fibroblasts, dose response, counter-screen, cell-based, ATP luminescence, mouse fibroblasts (AID 2010); format: functional;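 further: cells exposed to compound for about 90 hours before reading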
[8] = target: T4, Replicative DNA helicase DnaB (Mycobacterium tuberculosis, UniProt P9WMR3); experiment: DnaB intein splicing inhibitors, dose response, biochemical, cell-free fluorescence (AID 449749); format: functional
T4 sequence (P9WMR3 whole entry): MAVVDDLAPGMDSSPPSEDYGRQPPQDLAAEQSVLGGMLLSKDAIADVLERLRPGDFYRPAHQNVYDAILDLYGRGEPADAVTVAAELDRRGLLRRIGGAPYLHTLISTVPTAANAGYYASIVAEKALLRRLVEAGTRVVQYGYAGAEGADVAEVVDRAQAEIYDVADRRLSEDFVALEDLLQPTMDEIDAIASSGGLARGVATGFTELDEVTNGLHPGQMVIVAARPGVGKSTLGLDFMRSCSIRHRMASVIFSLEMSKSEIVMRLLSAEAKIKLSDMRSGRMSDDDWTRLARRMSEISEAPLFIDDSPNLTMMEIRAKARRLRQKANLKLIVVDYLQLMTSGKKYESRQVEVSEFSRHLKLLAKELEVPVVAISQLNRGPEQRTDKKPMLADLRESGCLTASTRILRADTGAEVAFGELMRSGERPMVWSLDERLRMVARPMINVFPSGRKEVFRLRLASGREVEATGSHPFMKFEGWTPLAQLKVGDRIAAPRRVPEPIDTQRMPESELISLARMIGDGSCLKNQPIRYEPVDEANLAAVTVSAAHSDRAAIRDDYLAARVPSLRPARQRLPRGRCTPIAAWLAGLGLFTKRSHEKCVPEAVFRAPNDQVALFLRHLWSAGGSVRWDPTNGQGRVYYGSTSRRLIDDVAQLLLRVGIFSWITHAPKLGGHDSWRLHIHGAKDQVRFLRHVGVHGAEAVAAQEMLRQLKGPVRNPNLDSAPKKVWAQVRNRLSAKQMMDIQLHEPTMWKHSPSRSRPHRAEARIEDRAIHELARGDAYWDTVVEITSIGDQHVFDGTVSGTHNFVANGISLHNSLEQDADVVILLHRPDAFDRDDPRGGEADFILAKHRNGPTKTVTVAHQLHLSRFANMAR

[9] = target: T5, Microphthalmia-associated transcription factor (Homo sapiens, UniProt O75030); experiment: TRPM1 promoter luciferase signal decrease, dose response, MITF inhibitor project, cell-based, SK-MEL-5, cherry-picked, set 3 (AID 493073); format: functional
T5 sequence (O75030 whole entry): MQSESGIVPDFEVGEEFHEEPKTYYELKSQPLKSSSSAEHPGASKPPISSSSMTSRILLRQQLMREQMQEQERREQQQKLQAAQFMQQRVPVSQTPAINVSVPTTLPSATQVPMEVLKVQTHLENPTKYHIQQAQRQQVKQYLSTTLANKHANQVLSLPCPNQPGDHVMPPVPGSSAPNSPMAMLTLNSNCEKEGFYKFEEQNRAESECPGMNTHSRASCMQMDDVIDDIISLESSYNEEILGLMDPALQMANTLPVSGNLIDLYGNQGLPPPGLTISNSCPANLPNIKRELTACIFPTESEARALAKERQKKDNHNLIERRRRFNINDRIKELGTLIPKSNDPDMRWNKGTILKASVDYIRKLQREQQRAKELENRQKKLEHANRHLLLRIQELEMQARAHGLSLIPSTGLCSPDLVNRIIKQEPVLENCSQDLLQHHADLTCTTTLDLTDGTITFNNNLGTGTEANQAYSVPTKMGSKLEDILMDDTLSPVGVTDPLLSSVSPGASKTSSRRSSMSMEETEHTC

[10] = test system: BJ; experiment: cytotoxicity toward BJ-TERT fibroblasts, dose response, cell-based, RAS-independent, luminescence (AID 1933); format: functional; details: Homo sapiens
[11] = test system: BJ; experiment: cytotoxicity toward BJ-TERT-LT-ST fibroblasts, dose response, cell-based, RAS-independent, luminescence (AID 1935); format: functional; details: Homo sapiens;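 further: BJ fibroblasts immortalized with TERT plus LT and ST oncogenes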
[12] = cytotoxicity toward DRD oncogenic fibroblasts, dose response, cell-based, non-viral oncogenic, luminescence (AID 1934); format: functional; details: Homo sapiens
[13] = cytotoxicity in HEK-293T cells, dose response, cytotoxicity control for TCR NF-kB inhibitor project, luminescence, T-cell screen hits (AID 489026); format: functional, cell-based;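 further: cells exposed to compound about 14 hours before the viability readout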
[14] = test system: BJ; experiment: cells; format: functional, cell-based; details: Homo sapiens
[15] = target: Cytochrome P450 2C9 (Homo sapiens, UniProt P11712)
Chain of Cytochrome P450 2C9 (P11712 whole entry): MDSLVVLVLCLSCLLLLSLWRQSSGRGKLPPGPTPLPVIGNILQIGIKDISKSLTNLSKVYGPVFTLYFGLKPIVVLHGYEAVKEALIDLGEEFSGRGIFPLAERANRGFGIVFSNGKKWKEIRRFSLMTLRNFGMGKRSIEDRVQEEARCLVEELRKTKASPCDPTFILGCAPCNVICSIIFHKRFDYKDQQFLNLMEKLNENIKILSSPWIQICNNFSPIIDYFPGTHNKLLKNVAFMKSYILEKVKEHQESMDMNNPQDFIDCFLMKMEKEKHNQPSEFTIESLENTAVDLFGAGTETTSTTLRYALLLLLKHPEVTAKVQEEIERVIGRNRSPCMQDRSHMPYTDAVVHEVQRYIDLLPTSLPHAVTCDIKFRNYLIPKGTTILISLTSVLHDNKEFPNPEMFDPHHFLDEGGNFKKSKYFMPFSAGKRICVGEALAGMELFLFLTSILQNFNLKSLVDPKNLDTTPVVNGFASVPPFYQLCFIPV

[16] = test system: INS1; experiment: beta cell apoptosis inhibitors, cytokine rescue, dose response, luminescence, retest (AID 449756); format: functional, cell-based; details: Rattus norvegicus;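 further: cell death triggered by IL-1 beta plus TNF-alpha plus IFN-gamma mixture; protective hits raise ATP signal compared with cytokine alone wells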
[17] = target: Genome polyprotein (dengue virus type 2, UniProt P29990); experiment: Dengue-2 NS5 methyltransferase inhibitors, primary screen, biochemical, confirmation dose response (AID 588689); format: functional
Chain of Genome polyprotein (P29990 2492-3391 limits assumed): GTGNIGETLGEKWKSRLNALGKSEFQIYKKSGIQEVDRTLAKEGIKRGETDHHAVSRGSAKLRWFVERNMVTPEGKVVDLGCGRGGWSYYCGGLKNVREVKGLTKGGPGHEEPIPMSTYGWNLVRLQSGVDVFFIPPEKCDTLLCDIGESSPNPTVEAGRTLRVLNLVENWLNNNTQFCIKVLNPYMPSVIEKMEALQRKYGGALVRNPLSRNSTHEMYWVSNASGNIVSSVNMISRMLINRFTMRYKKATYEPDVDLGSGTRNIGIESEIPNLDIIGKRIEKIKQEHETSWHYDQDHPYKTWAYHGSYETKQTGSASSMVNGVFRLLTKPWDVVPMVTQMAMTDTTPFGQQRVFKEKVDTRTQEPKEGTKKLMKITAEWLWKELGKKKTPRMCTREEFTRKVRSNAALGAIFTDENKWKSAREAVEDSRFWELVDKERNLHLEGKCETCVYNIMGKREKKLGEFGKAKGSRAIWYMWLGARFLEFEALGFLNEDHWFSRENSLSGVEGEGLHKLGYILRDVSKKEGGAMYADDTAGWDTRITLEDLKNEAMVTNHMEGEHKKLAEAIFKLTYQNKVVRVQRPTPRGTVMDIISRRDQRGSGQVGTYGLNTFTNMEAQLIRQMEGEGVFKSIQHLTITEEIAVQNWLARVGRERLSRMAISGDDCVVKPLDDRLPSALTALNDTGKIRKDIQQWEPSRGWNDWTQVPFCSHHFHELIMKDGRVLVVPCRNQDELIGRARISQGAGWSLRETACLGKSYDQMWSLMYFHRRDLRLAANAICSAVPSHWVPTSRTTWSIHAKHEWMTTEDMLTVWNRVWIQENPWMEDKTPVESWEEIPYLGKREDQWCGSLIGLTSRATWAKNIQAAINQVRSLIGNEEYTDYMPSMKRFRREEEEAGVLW

[18] = target: T6, Calpain-2 catalytic subunit (Sus scrofa, UniProt P43367); experiment: pig calpain II inhibitor potency, dose response, biochemical, fluorogenic peptide substrate (AID 1420); format: functional
T6 sequence (P43367 whole entry): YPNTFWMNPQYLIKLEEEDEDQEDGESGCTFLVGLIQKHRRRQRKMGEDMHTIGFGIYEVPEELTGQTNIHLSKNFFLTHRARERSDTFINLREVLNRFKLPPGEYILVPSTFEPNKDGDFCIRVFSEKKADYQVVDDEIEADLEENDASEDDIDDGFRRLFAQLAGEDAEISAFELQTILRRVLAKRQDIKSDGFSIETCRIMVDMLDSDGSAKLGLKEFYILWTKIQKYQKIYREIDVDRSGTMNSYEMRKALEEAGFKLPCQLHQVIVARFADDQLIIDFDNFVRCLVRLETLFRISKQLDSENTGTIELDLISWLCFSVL

[19] = target: Heat shock protein HSP 90-alpha (Homo sapiens, UniProt P07900); format: functional, organism-based
[20] = Luminescence Cell-Based Dose Retest to Confirm Inhibitors of Cancer Stem Cells. [Related pubchem assays (depositor defined):AID2717, AID2721]; format: functional; details: Homo sapiens
[21] = target: Large T antigen (Simian virus 40, UniProt P03070); format: functional, Betapolyomavirus macacae;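 further: Confirmatory-stage PubChem screen for compounds that inhibit SV40 T antigen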
Chain of Large T antigen (P03070 whole entry): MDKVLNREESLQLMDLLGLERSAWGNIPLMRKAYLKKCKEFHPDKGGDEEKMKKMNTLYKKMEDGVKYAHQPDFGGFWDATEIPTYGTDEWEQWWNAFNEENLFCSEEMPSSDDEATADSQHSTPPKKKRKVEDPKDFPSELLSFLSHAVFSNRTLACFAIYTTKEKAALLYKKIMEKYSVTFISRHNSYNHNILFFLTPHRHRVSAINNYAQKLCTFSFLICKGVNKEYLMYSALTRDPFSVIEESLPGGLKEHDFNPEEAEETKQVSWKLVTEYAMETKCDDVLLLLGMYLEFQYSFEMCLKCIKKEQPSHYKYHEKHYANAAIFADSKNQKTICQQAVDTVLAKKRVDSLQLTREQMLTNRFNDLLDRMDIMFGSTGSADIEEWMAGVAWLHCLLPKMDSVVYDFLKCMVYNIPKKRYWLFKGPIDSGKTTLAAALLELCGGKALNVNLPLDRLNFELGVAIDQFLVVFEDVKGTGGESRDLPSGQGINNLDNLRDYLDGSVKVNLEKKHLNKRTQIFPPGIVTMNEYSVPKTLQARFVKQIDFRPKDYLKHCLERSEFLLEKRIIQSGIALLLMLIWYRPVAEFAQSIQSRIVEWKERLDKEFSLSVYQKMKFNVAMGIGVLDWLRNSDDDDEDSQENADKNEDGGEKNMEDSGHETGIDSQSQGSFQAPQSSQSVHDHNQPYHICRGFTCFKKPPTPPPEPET

[22] = test system: P388/ADR; experiment: cells; format: functional; details: Mus musculus
[23] = test system: P388; experiment: cells; format: functional; details: Mus musculus

## O=C(Nc1ccc(F)cc1)c1cccc(N2C(=O)c3ccccc3C2=O)c1
[1]
  IC50: 11.1 µM (active)

## O=C(CCl)Nc1ccc(-c2ccccc2)cc1
[2]
  EC50: 4.59 µM (inconclusive)
[3]
  EC50: 1.69 µM (active)
[4]
  EC50: 9.64 µM (active)
[5]
  EC50: 0.587 µM (active)
[6]
  EC50: 1.77 µM (active)
[7]
  EC50: < 6 µM (inconclusive)
[8]
  AC50: 20.5 µM (active)
[9]
  AC50: 7.3 µM (active)

## Cc1ccc(C(=O)c2cc([N+](=O)[O-])ccc2N2CCOCC2)cc1C
[10]
  EC50: 3.06 µM (active)
[11]
  EC50: 1.75 µM (active)
[12]
  EC50: 1.6 µM (inconclusive)
[13]
  IC50: > 80 µM (inactive)
[14]
  EC50: 73.8 µM (inconclusive)

## CSc1ccccc1N1CCN(C(=O)Nc2ccc3c(c2)NC(=O)CO3)CC1
[15]
  AC50: inconclusive

## C=C1c2cccc(OC)c2O[C@H](C(=O)OCC)[C@@H]1CC(CC)CCCC (some centres not stated)
[1]
  IC50: 52.1 µM (active)

## C[N+]1=C(/C=C/Nc2ccccc2Cl)C(C)(C)c2ccccc21
[16]
  AC50: 7.84 µM (active)
[1]
  IC50: 5.96 µM (active)

## COc1cc(/C=C2\SC(=S)N(CCCCC(=O)O)C2=O)ccc1OS(=O)(=O)c1ccc(C)cc1
[17]
  IC50: 39.8 µM (active)
[1]
  IC50: 4.16 µM (active)

## O=C1C2CCCCC2C(=O)N1c1ccc(NC2CCN(Cc3ccccc3)CC2)c([N+](=O)[O-])c1 (configuration not stated)
[18]
  IC50: > 50 µM (not active)

## COc1ccc2cc3cc(C(=O)NCc4ccco4)oc3nc2c1
[1]
  IC50: 10.1 µM (active)

## CC(C)Oc1ccc(C(=O)/C=C2/C(=O)Nc3ccccc32)cc1
[19]
  AC50: 1.94 µM (active)
[20]
  AC50: 4.39 µM (active)

## CCCc1ccc(C(=O)NNC(=O)c2ccc(Br)cc2)cc1
[1]
  IC50: 5.88 µM (active)

## CCCCOc1ccc(CNC(=O)NS(=O)(=O)c2ccc(OCC(C)C)cc2)cc1
[1]
  IC50: 14.8 µM (active)

## CCN(C(=O)C1CCCN(c2nc(-c3ccc(OC)cc3)no2)C1)c1ccc(OC)cc1 (configuration not stated)
[19]
  AC50: 7.81 µM (active)

## COc1cccc(NC(S)=Nc2ccc(O)cc2)c1
[21]
  IC50: 5.64 µM (active)

## O=C(/C=C/c1ccccc1)CCN1CCCCC1
[19]
  AC50: 3.9 µM (active)

## O=S(=O)(c1c(F)cccc1F)N(CCc1ccc(F)cc1)C[C@@H](O)COCc1ccccc1
[19]
  AC50: 0.392 µM (active)

## CCC(C(C)N1CC(=O)NC(=O)C1)N1CC(=O)NC(=O)C1 (configuration not stated)
[22]
  GI50: 6.12 µM (inactive)
[23]
  GI50: < 0.0316 µM (active)

## O=C(O)C1Cc2c([nH]c3ccccc23)C=N1 (configuration not stated)
[22]
  GI50: > 100 µM (inactive)
[23]
  GI50: > 100 µM (inactive)

## CCOc1cc(/C=N/Nc2ccc(C(=O)O)cc2)ccc1OC(=O)c1ccccc1C
[18]
  IC50: 5.07 µM (active)

## C(=C\c1ccccc1)/C=N/N1CCN(Cc2ccccc2)CC1
[18]
  IC50: > 50 µM (not active)

## COc1cc(/C=N/NC(=O)c2ccc(Cn3cc([N+](=O)[O-])cn3)o2)cc(Br)c1O
[21]
  IC50: 24 µM (active)
